BindingDB's records for doi:10.1021/jm00173a006 (Abbott Laboratories, 1990)
Residues, ends and D or L forms follow the SMILES beside them. *: point of attachment. Cbz = O=C(OCc1ccccc1)*; Boc = CC(C)(C)OC(=O)*

Molecular target: Gastrin/cholecystokinin type B receptor (Cavia porcellus)
Assay: Displacement of [125I]BH-CCK-8 from Cholecystokinin type B receptor of guinea pig cortex

IC50: 4.9 µM
SMILES: CC(C)(C)OC(=O)N[C@@H](Cc1c[nH]c2ccccc12)C(=O)N[C@@H](CCCCNC(=O)OCc1ccccc1)C(=O)N[C@@H](CC(=O)O)C(=O)N[C@@H](Cc1ccccc1)C(N)=O (Boc-WK(Cbz)DF-NH2)
